According to ChEMBL document CHEMBL5126611, “Design, Synthesis, and Biological Evaluations of Pyridyl 4,5,6,7-Tetrahydro-4,7-Methanobenzo[d]isoxazoles as Potent and Selective Inhibitors of 11β-Hydroxylase” (J Med Chem, 2022):

Tests used:
Cytochrome P450 1A2 = target: T1, Cytochrome P450 1A2 (Homo sapiens, UniProt P05177); assay: Inhibition of human hepatic recombinant CYP1A2 using cocktail of substrate by LC-MS/MS analysis; type: ADME
T1 sequence (P05177 whole entry): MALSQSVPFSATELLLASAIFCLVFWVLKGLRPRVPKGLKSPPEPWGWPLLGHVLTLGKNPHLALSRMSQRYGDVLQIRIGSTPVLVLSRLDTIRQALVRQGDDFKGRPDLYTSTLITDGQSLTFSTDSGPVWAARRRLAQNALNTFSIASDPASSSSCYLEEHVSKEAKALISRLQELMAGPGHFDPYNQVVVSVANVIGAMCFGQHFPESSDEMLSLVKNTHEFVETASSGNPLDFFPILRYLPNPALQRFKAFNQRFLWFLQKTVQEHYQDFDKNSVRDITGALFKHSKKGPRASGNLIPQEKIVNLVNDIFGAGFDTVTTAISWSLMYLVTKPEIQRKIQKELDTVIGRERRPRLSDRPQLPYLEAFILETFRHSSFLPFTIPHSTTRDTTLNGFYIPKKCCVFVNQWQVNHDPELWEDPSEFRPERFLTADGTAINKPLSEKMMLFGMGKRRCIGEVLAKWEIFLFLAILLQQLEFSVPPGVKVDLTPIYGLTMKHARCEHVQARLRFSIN

[1] = Tmax in Sprague-Dawley rat at 5 mg/kg, iv measured up to 24 hrs by LC-MS analysis; type: ADME, organism-based; conditions: in vivo
[2] = target: T2, Steroid 17-alpha-hydroxylase/17,20 lyase (Homo sapiens, UniProt P05093); assay: Inhibition of human CYP17 expressed in Escherichia coli; type: ADME
T2 sequence (P05093 whole entry): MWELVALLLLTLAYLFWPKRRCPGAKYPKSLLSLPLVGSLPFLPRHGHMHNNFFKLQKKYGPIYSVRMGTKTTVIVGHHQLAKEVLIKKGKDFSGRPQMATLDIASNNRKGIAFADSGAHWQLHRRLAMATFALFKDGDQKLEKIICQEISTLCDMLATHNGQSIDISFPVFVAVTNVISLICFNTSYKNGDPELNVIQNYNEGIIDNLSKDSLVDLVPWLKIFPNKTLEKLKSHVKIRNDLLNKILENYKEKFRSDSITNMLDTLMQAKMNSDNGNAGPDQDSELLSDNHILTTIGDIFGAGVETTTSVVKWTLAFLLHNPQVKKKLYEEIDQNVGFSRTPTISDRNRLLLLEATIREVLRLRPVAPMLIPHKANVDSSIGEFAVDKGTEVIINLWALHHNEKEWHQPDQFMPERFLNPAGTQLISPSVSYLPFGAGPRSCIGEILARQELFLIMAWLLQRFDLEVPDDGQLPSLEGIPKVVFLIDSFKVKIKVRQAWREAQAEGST

[3] = Cmax in Sprague-Dawley rat at 5 mg/kg, iv measured up to 24 hrs by LC-MS analysis; type: ADME, organism-based; set-up: dose 5 mg/kg, time < 24 hrs, route iv; conditions: in vivo
[4] = target: T3, Cytochrome P450 11B2, mitochondrial (Homo sapiens, UniProt P19099); assay: Inhibition of human CYP11B2 expressed in Chinese hamster V79 MZh cells using [14C]-deoxycorticosteron as substrate measured after 6 hrs by phosphoimager analysis; type: ADME, cell-based
T3 sequence (P19099 whole entry): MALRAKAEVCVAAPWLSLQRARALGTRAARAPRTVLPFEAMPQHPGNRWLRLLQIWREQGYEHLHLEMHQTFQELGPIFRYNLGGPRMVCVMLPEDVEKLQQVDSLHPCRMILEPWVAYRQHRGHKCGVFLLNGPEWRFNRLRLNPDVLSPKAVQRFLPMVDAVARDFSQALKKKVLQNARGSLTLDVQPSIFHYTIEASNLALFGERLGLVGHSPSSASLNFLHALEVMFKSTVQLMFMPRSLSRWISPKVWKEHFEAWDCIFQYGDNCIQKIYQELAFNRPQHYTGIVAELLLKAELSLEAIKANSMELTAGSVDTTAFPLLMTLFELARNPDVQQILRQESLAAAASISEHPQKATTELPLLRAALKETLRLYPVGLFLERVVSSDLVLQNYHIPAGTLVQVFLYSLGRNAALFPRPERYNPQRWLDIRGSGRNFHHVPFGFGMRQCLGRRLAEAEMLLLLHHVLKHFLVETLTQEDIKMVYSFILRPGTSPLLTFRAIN

[5] = Selectivity ratio of IC50 for inhibition of rat CYP11B2 to IC50 for inhibition of rat CYP11B1; type: ADME
[6] = Selectivity ratio of IC50 for inhibition of human CYP11B2 to IC50 for inhibition of human CYP11B1; type: ADME
Cytochrome P450 3A4 = Cytochrome P450 3A4 (Homo sapiens, UniProt P08684); assay: Inhibition of human hepatic recombinant CYP3A using cocktail of substrate by LC-MS/MS analysis; type: ADME
Cytochrome P450 3A4, sequence (P08684 whole entry): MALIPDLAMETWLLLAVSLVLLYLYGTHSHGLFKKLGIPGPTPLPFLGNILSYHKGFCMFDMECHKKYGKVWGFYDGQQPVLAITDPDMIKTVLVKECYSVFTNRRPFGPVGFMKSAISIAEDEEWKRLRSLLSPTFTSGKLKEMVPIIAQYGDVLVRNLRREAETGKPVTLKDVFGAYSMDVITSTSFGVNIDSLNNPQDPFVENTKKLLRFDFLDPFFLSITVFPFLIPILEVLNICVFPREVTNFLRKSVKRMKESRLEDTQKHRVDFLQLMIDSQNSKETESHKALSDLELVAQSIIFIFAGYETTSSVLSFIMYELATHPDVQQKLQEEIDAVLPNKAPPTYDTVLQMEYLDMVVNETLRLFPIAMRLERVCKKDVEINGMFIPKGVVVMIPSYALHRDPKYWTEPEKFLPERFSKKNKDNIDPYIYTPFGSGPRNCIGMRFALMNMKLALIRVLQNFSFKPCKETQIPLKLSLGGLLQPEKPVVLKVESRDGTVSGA

Cytochrome P450 2C9 = Cytochrome P450 2C9 (Homo sapiens, UniProt P11712); assay: Inhibition of human hepatic recombinant CYP2C9 using cocktail of substrate by LC-MS/MS analysis; type: ADME
Cytochrome P450 2C9, sequence (P11712 whole entry): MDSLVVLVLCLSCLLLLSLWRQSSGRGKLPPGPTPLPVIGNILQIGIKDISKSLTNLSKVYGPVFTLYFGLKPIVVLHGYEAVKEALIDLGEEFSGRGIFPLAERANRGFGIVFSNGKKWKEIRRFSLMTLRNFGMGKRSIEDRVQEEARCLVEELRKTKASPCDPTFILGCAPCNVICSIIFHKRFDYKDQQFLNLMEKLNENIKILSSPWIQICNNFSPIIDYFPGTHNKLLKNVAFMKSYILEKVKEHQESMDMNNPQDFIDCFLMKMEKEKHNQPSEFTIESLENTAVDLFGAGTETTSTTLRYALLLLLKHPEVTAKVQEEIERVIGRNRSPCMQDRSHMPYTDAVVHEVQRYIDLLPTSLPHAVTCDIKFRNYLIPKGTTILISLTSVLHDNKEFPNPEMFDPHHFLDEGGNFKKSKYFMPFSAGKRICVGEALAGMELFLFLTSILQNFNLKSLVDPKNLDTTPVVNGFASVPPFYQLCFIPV

[7] = Reduction of cortisol elevation in Sprague-Dawley rat at 25 mg/kg, po measured after 4 hrs by liquid chromatography-tandem mass spectrometry analysis (reference value: 376+/- 22 ng/L); type: functional
[8] = Tmax in Sprague-Dawley rat at 25 mg/kg, po measured up to 24 hrs by LC-MS analysis; type: ADME, organism-based; conditions: in vivo
[9] = Cytotoxicity against human HepG2 cells assessed as reduction in cell viability; type: toxicity, cell-based; conditions: read-out: LC50 (the source's name)
Aromatase = target: T4, Aromatase (Homo sapiens, UniProt P11511); assay: Inhibition of human placental microsome CYP19 using [1beta-3H]-androstenedione as substrate; type: ADME, microsomes, Placenta
T4 sequence (P11511 whole entry): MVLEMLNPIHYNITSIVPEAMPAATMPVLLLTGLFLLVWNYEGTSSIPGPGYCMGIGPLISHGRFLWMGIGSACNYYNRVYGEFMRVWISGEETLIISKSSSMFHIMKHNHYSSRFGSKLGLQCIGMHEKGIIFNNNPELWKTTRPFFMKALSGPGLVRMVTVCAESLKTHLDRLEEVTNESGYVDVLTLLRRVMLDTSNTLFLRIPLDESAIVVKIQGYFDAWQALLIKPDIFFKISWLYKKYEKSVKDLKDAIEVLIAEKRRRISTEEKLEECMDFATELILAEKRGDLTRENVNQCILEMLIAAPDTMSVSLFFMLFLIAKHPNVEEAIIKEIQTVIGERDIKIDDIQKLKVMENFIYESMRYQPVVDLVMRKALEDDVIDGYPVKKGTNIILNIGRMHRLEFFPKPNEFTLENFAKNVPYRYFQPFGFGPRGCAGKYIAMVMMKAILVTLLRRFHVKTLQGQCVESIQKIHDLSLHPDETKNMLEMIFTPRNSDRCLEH

[10] = Terminal half life in Sprague-Dawley rat at 5 mg/kg, iv measured up to 24 hrs by LC-MS analysis; type: ADME, organism-based; conditions: in vivo, read-out: beta t1/2 (converted)

Question: For `O=C(Nc1ccc2[nH]ncc2c1)[C@]12ON=C(c3cccnc3)[C@H]1[C@@H]1CC[C@H]2C1`, which IC50 (Cytochrome P450 1A2) is on record?
Answer: > 10 µM

Question: What about the Tmax [1] of the same molecule?
Answer: 0 h

Question: And the IC50 [2]?
Answer: > 10 µM

Question: And the Cmax [3]?
Answer: 12700 ng/mL

Question: What about the IC50 [4] of the same molecule?
Answer: 1120 nM

Question: And the “Ratio IC50” value [5]?
Answer: 81

Question: And the “Ratio IC50” value [6]?
Answer: 125

Question: And the IC50 (Cytochrome P450 3A4)?
Answer: > 10 µM

Question: What about the IC50 (Cytochrome P450 2C9) of the same molecule?
Answer: > 10 µM

Question: What about the Activity [7] of the same molecule?
Answer: 28 ng/L

Question: And the Tmax [8]?
Answer: 4.2 h

Question: What about the CC50 [9] of the same molecule?
Answer: > 50 µM

Question: What about the IC50 (Aromatase) of the same molecule?
Answer: > 10 µM

Question: And the half-life [10]?
Answer: 270 min
